Reference: US20220274927A1, “MEMBRANE-ACTIVE ANTI-BACTERIAL COMPOUNDS AND USES THEREOF” (Trustees of Dartmouth College, priority 2019, published 2022)
Converted amounts (≈) assume the structure as drawn. “Also recorded” adds a separate entry of the source. Read-outs that look alike come from different tables or passages of the source.

Experiments:
S. aureus MW2 = experiment: Antimicrobial susceptibility MIC, S. aureus MW2; type: cell-based; settings: Staphylococcus aureus; S. aureus strain MW2; read-out: MIC
Excerpt: (§1) The first set of compounds evaluated were analogs at the C-7 and C-8 positions of the initial quinolone hit DNAC-2 since the other HTS hits identified (data not shown) were substituted at these positions (Table 1). Applicants first explored modification at the C-7 position with a small series of electron-donating and withdrawing substituents. […] However, analogs containing electron donating groups at C-7 including ethyl 7, benzyloxy 8, methoxy 9 and methylthio 10 are weakly active displaying MICs of 320-640 μg/mL indicating electron-donating substituents at C-7 are poorly tolerated. […] The C-8 position was evaluated with trifluoromethyl 4 and trifluoromethoxy 5 containing the optimal C-7 substituents. Both 4 and 5 are equipotent to the corresponding C-7 analogs 2 and 3 indicating some flexibility of the quinolone scaffold.
(§2) The compounds maintain activity against Staphylococcus epidermidis; however, 31, 111 and 123 all lose considerable potency against Enterococcus faecalis and Enterococcus faecium, which contribute heavily, along with MRSA, to healthcare-associated infections.

[1] = test system: clinical methicillin-resistant Staphylococcus aureus (MRSA) isolates; experiment: MIC against panel of MRSA / staphylococcal strains (text summaries); type: cell-based
Excerpt: as §1, §2

S. epidermidis NIH04003 = experiment: Antimicrobial susceptibility MIC, S. epidermidis NIH04003; type: cell-based; settings: Staphylococcus epidermidis; S. epidermidis strain NIH04003
Excerpt: as §1, §2

Solubility = type: physicochemical
S. aureus NRS71 = experiment: Antimicrobial susceptibility MIC, S. aureus NRS71; type: cell-based; settings: Staphylococcus aureus; S. aureus strain NRS71
Excerpt: as §1, §2

S. aureus COL = experiment: Antimicrobial susceptibility MIC, S. aureus COL; type: cell-based; settings: Staphylococcus aureus; S. aureus strain COL
Excerpt: as §1, §2

[2] = test system: methicillin-resistant S. aureus (FPR3757); experiment: MIC against clinical MRSA strain FPR3757 in Mueller-Hinton broth (CLSI); type: cell-based, Staphylococcus aureus; settings: MRSA clinical strain FPR3757, Mueller-Hinton broth, CLSI guidelines, complete inhibition of observable growth
Excerpt: as §1

[3] = test system: erythrocyte membranes (versus S. aureus membranes); experiment: in vitro; type: cell-based, sheep; settings: sheep; read-out: selectivity for S. aureus membranes over erythrocyte membranes
Method: (§3) FIG. 8 illustrates percent hemolysis analysis of sheep erythrocytes. Concentration-dependent hemolysis was measured by monitoring the optical density (OD)540 of PBS-washed sheep erythrocytes. Complete hemolysis (100%) was confirmed by treatment of erythrocytes with Triton X-100. Data points represent the mean±SD of triplicate experiments.
(§4) The macromolecular synthesis assay, TEM, and FM experiments were all consistent with membrane disruption. […] The high membrane selectivity of the 5-aminoquinolin-4-ones in this assay is impressive and is in accordance with the observed therapeutic index (CC50/MIC).

S. aureus N325 = experiment: Antimicrobial susceptibility MIC, S. aureus N325; type: cell-based; settings: Staphylococcus aureus; S. aureus strain N325
Excerpt: as §1, §2

S. aureus NIH04008 = experiment: Antimicrobial susceptibility MIC, S. aureus NIH04008; type: cell-based; settings: Staphylococcus aureus; S. aureus strain NIH04008; read-out: MIC
Excerpt: as §1, §2

E. faecium DHMC #1 = experiment: Antimicrobial susceptibility MIC, E. faecium DHMC #1; type: cell-based; settings: Enterococcus faecium; E. faecium strain DHMC #1
Excerpt: as §1, §2

E. faecalis DHMC #1 = experiment: Antimicrobial susceptibility MIC, E. faecalis DHMC #1; type: cell-based; settings: Enterococcus faecalis; E. faecalis strain DHMC #1
Excerpt: as §1, §2

S. aureus (strain COL) = experiment: Fluorescent microscopy of membrane, cell wall and DNA; type: cell-based; settings: 1× MIC, 30 minutes, vs DMSO
Method: FIGS. 7A and 7B illustrate fluorescent microscopy (FM) analysis of the membrane, cell wall, and DNA in MRSA. FM of COL MRSA strain treated with compound 123 (FIG. 7B, bottom row) at 1×MIC and DMSO (FIG. 7A, top row) for 30 minutes followed by staining with FM-64 (far left column, 0.5 μg/mL), VanFL (second column, 1 μg/mL), and Hoechst (third column, 1 μg/mL) for 5 minutes and washed with 1× phosphate buffered saline (PBS) before imaging (fourth column, overlay).
(§5) These cellular defects were not seen in any of the control cells treated with DMSO. Fluorescent microscopy was performed on a S. aureus (strain COL) strain after treatment with either DMSO, 31 or 123 for 30 minutes followed by staining with FM 4-64 (red membrane stain), bodipy-vancomycin (Van-FL, green stain), and Hoechst (blue DNA stain).

Staphylococcus simulans = experiment: Macromolecular synthesis assays (radiolabeled precursor incorporation); type: cell-based
Excerpt: FIG. 5 illustrates macromolecular synthesis assays (representative data with 123). Time-course for inhibition of incorporation of radiolabeled precursors [^3H]-L-isoleucine (protein), [^3H]-thymidine (DNA), [^3H]-uridine (RNA), and [^3H]-glucosamine (cell wall) in S. simulans by 123 at 0.5×, 1× and 5×MIC. Data are expressed as the percentage of inhibition relative to the DMSO only negative control. The positive control antibiotics denoted by closed circles were used at 10× MIC. Data represent the mean±standard deviation (SD) of triplicate experiments.
Classical macromolecular synthesis assays were performed to provide insight on the putative mechanism of action of the most promising quinoline 31 and quinolone 123 candidates. Disruption of bacterial membranes is not only rapid, but interferes with all major metabolic activities in the cell and is thus easily distinguished by macromolecular synthesis assays. […] The control antibiotics ciprofloxacin, rifampicin, vancomycin and tetracycline were included as inhibitors of DNA, RNA, cell wall, and protein synthesis, respectively. The cells were quenched at various time points with 10% trichloroacetic acid (TCA), filtered, washed and the amount of precursor incorporation was quantified by scintillation counting.

[4] = test system: S. aureus (strain USA300); experiment: Transmission electron microscopy of treated cells; type: cell-based; settings: 1× MIC, after 10 minutes, vs DMSO
Method: FIGS. 6A, 6B and 6C illustrate transmission electron microscopy (TEM) imaging of MRSA USA300 treated with compounds 22 and 31.
Transmission electron microscopy (TEM) and fluorescence microscopy (FM) allowed Applicants to directly observe the effects of the novel 4-aminoquinolines […] 5-aminoquinolones on the cell morphology of staphylococci.
as §5

S. aureus (MRSA) = experiment: In vitro time-kill assay; type: cell-based; settings: 1× MIC, initial inoculum 10^5 CFU, plating over six hours
Method: FIG. 4 illustrates in vitro time-kill analysis of methicillin resistant Staphylococcus aureus (MRSA). Bacterial killing was monitored by measuring the colony forming unit (CFU) for six hours when treated with compounds 22, 31, 117, and 123 at 1× the minimum inhibitory concentration (MIC) of each compound. The CFU at each time point was determined by plating and then compared to a dimethyl sulfoxide (DMSO) control.
While the MIC data confirmed that these compounds were at least bacteriostatic, Applicants wanted to test for bactericidal properties of both the aminoquinoline and aminoquinolone scaffolds. […] The kinetics of bacterial killing was assessed in vitro using time-kill assays by incubating compounds at 1× their MIC with an initial inoculum of 10^5 colony forming units (CFU) of S. aureus and removing aliquots at various time points to determine the residual CFU by plating.

[5] = test system: MRSA clinical strain S. aureus FPR3757; experiment: Minimum bactericidal concentration (MBC) against S. aureus FPR3757; type: cell-based
[6] = test system: S. aureus membranes (versus erythrocyte membranes); experiment: in vitro; type: cell-based, sheep; settings: sheep
Method: as §3, §4

sheep erythrocytes = experiment: in vitro; type: cell-based; settings: sheep, 32 μg/mL
Method: as §3, §4

MRSA = settings: HTS hit, previously reported by Applicants; cited from earlier work
[7] = test system: membrane of gram-positive bacteria; settings: previously reported; cited from earlier work
eukaryotic membranes = settings: cited from earlier work
[8] = six S. aureus strains of Table 9, read-out: MIC towards all six S. aureus strains
[9] = Staphylococcus aureus, MRSA, read-out: MIC

MIC (S. aureus MW2)	MIC [1, 8]	MIC (S. epidermidis NIH04003)	MIC (S. aureus NRS71)	MIC (S. aureus COL)	MIC [2, 9]	MIC (S. aureus N325)	MIC (S. aureus NIH04008)	MIC (E. faecium DHMC #1)	MIC (E. faecalis DHMC #1)	SMILES	other results
< 0.06 µg/mL	< 0.06 µg/mL	< 0.06 µg/mL	< 0.06 µg/mL	< 0.06 µg/mL	< 0.06 µg/mL	< 0.06 µg/mL	< 0.06 µg/mL	2 µg/mL (≈ 4.53 µM)	2 µg/mL (≈ 4.53 µM)	O=c1cc(C(F)(F)F)[nH]c2cc(C(F)(F)F)cc(Nc3ccc(C(F)(F)F)cn3)c12 [Compound 111]	solubility (Solubility): low solubility; selectivity ratio [3]: > 500
< 0.06 µg/mL	< 0.06 µg/mL	< 0.06 µg/mL	< 0.06 µg/mL	< 0.06 µg/mL	< 0.06 µg/mL	< 0.06 µg/mL	< 0.06 µg/mL	8 µg/mL (≈ 20.4 µM)	8 µg/mL (≈ 20.4 µM)	O=c1cc(C(F)(F)F)[nH]c2cc(F)cc(Nc3ccc(C(F)(F)F)cn3)c12 [Compound 123]	DNA and cell wall staining (Hoechst, Van-FL) (S. aureus (strain COL)): little or no change compared to the DMSO control; membrane staining (FM 4-64) (S. aureus (strain COL)): membrane defects; MIC ([1]; read-out: MIC against numerous clinical MRSA isolates): ≤ 0.06 µg/mL; inhibition of DNA, RNA, protein and cell-wall synthesis (Staphylococcus simulans; 0.5×, 1× and 5× MIC): concentration-dependent inhibition of DNA, RNA, protein and cell-wall synthesis; inhibition of macromolecular processes at 5× MIC (Staphylococcus simulans; 5× the MIC, DNA, RNA, protein, cell wall precursor incorporation): completely inhibited all macromolecular processes; MIC [2]: <0.06 µg/mL; cell morphology in TEM images [4]: cross-wall-septum formation with reduced splitting; also recorded: mesosome-like membrane inclusions; time-kill: CFU reduction (S. aureus (MRSA)): reduced the CFU below the limit of detection at four to six hours; MBC relative to MIC [5]: MBCs equal to their MIC values; selectivity ratio [6]: > 500; hemolysis (sheep erythrocytes): None of the compounds except 76, displayed any hemolysis
–	–	–	–	–	–	–	–	–	–	O=c1cc(C(F)(F)F)[nH]c2c(OC(F)(F)F)cccc12 [DNAC-2]	MIC against MRSA (MRSA): 8 µg/mL (≈ 26.9 µM); membrane effect on gram-positive bacteria [7]: partial membrane depolarization; toxicity towards eukaryotic membranes (eukaryotic membranes): no toxicity towards eukaryotic membranes
